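All cell lines were grown in 96-well plates and treated with compound for 48 hours. At the GI50, growth is halved.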 The source made the active and inactive calls. Rule as the data show it: active = GI50 up to about 1.1 µM and inactive = higher.
Assays:
Experiment in all cases: NCI-60 cell line screen, 48 h
M14 = test system: M14
Malme-3M = test system: Malme-3M
HOP-62 = test system: HOP-62
A549 = test system: A549
RPMI-8226 = test system: RPMI-8226
M19-MEL = test system: M19-MEL
IGROV-1 = test system: IGROV-1
COLO 205 = test system: COLO 205
SNB-75 = test system: SNB-75
DMS-114 = test system: DMS-114
786-0 = test system: 786-0
KM-20L2 = test system: KM-20L2
OVCAR-5 = test system: OVCAR-5
KM12 = test system: KM12
SF-539 = test system: SF-539
NCI-H23 = test system: NCI-H23
CAKI-1 = test system: CAKI-1
NCI-H226 = test system: NCI-H226
K562 = test system: K562
UO-31 = test system: UO-31
XF498 = test system: XF498
HOP-92 = test system: HOP-92
UACC-257 = test system: UACC-257
U-251 = test system: U-251
LOX IMVI = test system: LOX IMVI
SF-268 = test system: SF-268
MOLT-4 = test system: MOLT-4
LXFL 529 = test system: LXFL 529
SR = test system: SR
HCC 2998 = test system: HCC 2998
OVCAR-3 = test system: OVCAR-3
SK-MEL-28 = test system: SK-MEL-28
HT-29 = test system: HT-29
CCRF-CEM = test system: CCRF-CEM
SF-295 = test system: SF-295
A498 = test system: A498
DLD-1 = test system: DLD-1
SNB-78 = test system: SNB-78
OVCAR-4 = test system: OVCAR-4
SK-OV-3 = test system: SK-OV-3
OVCAR-8 = test system: OVCAR-8
SW-620 = test system: SW-620
HCT-116 = test system: HCT-116
TK-10 = test system: TK-10
HL-60 = test system: HL-60
EKVX = test system: EKVX
HCT-15 = test system: HCT-15
RXF 393 = test system: RXF 393
SN12C = test system: SN12C
SK-MEL-5 = test system: SK-MEL-5
DMS-273 = test system: DMS-273
SK-MEL-2 = test system: SK-MEL-2
SNB-19 = test system: SNB-19
NCI-H460 = test system: NCI-H460
UACC-62 = test system: UACC-62
ACHN = test system: ACHN
NCI-H522 = test system: NCI-H522
HOP-18 = test system: HOP-18

Measured: GI50

COc1cc([C@H]2c3cc4c(cc3[C@H](NCc3ccc([N+](=O)[O-])cc3)C3COC(=O)[C@H]32)OCO4)cc(OC)c1O (stereo partly drawn)
1.61 µM: HCT-15
active: HOP-62 0.26 µM | A549 0.213 µM | RPMI-8226 0.938 µM | 786-0 0.877 µM | SF-539 0.745 µM | NCI-H23 0.398 µM | CAKI-1 0.424 µM | NCI-H226 0.324 µM | U-251 0.655 µM | LOX IMVI 0.92 µM | MOLT-4 0.106 µM | SR 0.0333 µM | CCRF-CEM 0.251 µM | SF-295 0.681 µM | A498 0.378 µM | SW-620 1.03 µM | HL-60 1.02 µM | SN12C 0.807 µM | DMS-273 0.661 µM | SNB-19 1.01 µM | NCI-H460 < 0.0282 µM | UACC-62 1.07 µM | ACHN 0.378 µM
inactive: M14 1.97 µM | Malme-3M 1.56 µM | M19-MEL 3.85 µM | IGROV-1 12.3 µM | COLO 205 2.52 µM | SNB-75 1.45 µM | DMS-114 2.62 µM | KM-20L2 2.48 µM | OVCAR-5 2.89 µM | KM12 2.44 µM | K562 3.18 µM | UO-31 1.79 µM | XF498 3.32 µM | HOP-92 2.81 µM | UACC-257 7.96 µM | SF-268 1.47 µM | LXFL 529 5.07 µM | HCC 2998 1.23 µM | OVCAR-3 3.08 µM | SK-MEL-28 5.45 µM | HT-29 2.17 µM | DLD-1 2.7 µM | SNB-78 5.94 µM | OVCAR-4 72.8 µM | SK-OV-3 2.24 µM | OVCAR-8 1.63 µM | HCT-116 2.36 µM | TK-10 1.96 µM | EKVX 3.18 µM | RXF 393 3.37 µM | SK-MEL-5 2.29 µM | SK-MEL-2 4.38 µM

CCCCNC(=O)N/C=C1\C(=O)Oc2ccccc2C1=O
inactive: M14 41.7 µM | HOP-62 47.5 µM | A549 80.9 µM | RPMI-8226 55.7 µM | M19-MEL 54.5 µM | IGROV-1 37.1 µM | COLO 205 > 100 µM | DMS-114 28.3 µM | KM-20L2 > 100 µM | OVCAR-5 68.5 µM | SF-539 39.4 µM | NCI-H23 54.6 µM | NCI-H226 32.7 µM | UO-31 11.8 µM | XF498 14.1 µM | HOP-92 24.9 µM | UACC-257 55.7 µM | LOX IMVI 70.1 µM | SF-268 34.4 µM | MOLT-4 35.3 µM | LXFL 529 47.8 µM | SR 57.5 µM | HCC 2998 > 100 µM | SK-MEL-28 30.1 µM | HT-29 > 100 µM | SNB-78 19.9 µM | OVCAR-4 57.3 µM | OVCAR-8 74.1 µM | SW-620 58.7 µM | HCT-116 43.9 µM | TK-10 79.4 µM | HL-60 22.1 µM | EKVX > 100 µM | RXF 393 15 µM | SN12C 29.5 µM | SK-MEL-5 > 100 µM | DMS-273 76.6 µM | SK-MEL-2 20.1 µM | SNB-19 26.5 µM | NCI-H460 > 100 µM | UACC-62 33.4 µM | ACHN 24.5 µM
28.8 µM: HCT-15

Cc1nc2c(n1Cc1ccc(Cl)cc1)C(=O)c1ccccc1C2=O
inactive: M14 > 75 µM | Malme-3M 35.6 µM | HOP-62 20.8 µM | A549 17.4 µM | M19-MEL 11.7 µM | IGROV-1 > 75 µM | COLO 205 > 75 µM | SNB-75 19.9 µM | 786-0 5.68 µM | KM-20L2 8.05 µM | KM12 > 75 µM | SF-539 2.48 µM | NCI-H23 > 75 µM | NCI-H226 > 75 µM | K562 2.06 µM | UO-31 > 75 µM | XF498 36.4 µM | UACC-257 > 75 µM | U-251 3.48 µM | LOX IMVI 2.05 µM | SF-268 5.09 µM | MOLT-4 3.14 µM | LXFL 529 5.47 µM | SR 1.32 µM | HCC 2998 > 75 µM | OVCAR-3 67.3 µM | SK-MEL-28 > 75 µM | HT-29 4.08 µM | CCRF-CEM 4.67 µM | SF-295 11 µM | DLD-1 4.18 µM | SNB-78 9.42 µM | OVCAR-4 > 75 µM | SK-OV-3 > 75 µM | OVCAR-8 8.99 µM | HCT-116 2.6 µM | TK-10 > 75 µM | HL-60 4.36 µM | EKVX > 75 µM | RXF 393 33.9 µM | SN12C > 75 µM | SK-MEL-5 16.4 µM | DMS-273 2.62 µM | SK-MEL-2 > 75 µM | NCI-H522 5.52 µM | SNB-19 > 75 µM | NCI-H460 1.75 µM | UACC-62 3.36 µM | ACHN 27 µM
1.07 µM: HCT-15

CCOC12SC(Nc3ccc(C)cc3)=NN1C(=S)N(C)N=C2C (stereo not drawn)
> 100 µM: HCT-15
inactive: M14 > 100 µM | HOP-62 > 100 µM | A549 > 100 µM | RPMI-8226 > 100 µM | M19-MEL > 100 µM | IGROV-1 > 100 µM | COLO 205 > 100 µM | SNB-75 > 100 µM | DMS-114 > 100 µM | 786-0 > 100 µM | KM-20L2 > 100 µM | OVCAR-5 > 100 µM | KM12 > 100 µM | SF-539 > 100 µM | NCI-H23 > 100 µM | NCI-H226 > 100 µM | K562 > 100 µM | HOP-92 > 100 µM | UACC-257 > 100 µM | U-251 > 100 µM | LOX IMVI > 100 µM | SF-268 > 100 µM | MOLT-4 > 100 µM | LXFL 529 > 100 µM | SR > 100 µM | SK-MEL-28 > 100 µM | HT-29 > 100 µM | CCRF-CEM > 100 µM | SF-295 > 100 µM | HOP-18 > 100 µM | A498 > 100 µM | DLD-1 > 100 µM | OVCAR-4 > 100 µM | OVCAR-8 > 100 µM | SW-620 > 100 µM | HCT-116 > 100 µM | HL-60 > 100 µM | EKVX > 100 µM | RXF 393 > 100 µM | SN12C > 100 µM | SK-MEL-5 > 100 µM | DMS-273 > 100 µM | NCI-H522 > 100 µM | SNB-19 > 100 µM | NCI-H460 > 100 µM | UACC-62 > 100 µM | ACHN > 100 µM

O=C(c1ccccc1)c1oc2ccc(Br)cc2c1-c1cnn(-c2ccccc2)c1
> 100 µM: HCT-15
inactive: M14 > 100 µM | Malme-3M > 100 µM | HOP-62 > 100 µM | A549 > 10 µM | RPMI-8226 54.7 µM | M19-MEL > 100 µM | IGROV-1 > 100 µM | COLO 205 > 100 µM | SNB-75 > 100 µM | DMS-114 > 100 µM | 786-0 > 100 µM | KM-20L2 > 100 µM | OVCAR-5 > 100 µM | KM12 > 100 µM | NCI-H23 > 100 µM | CAKI-1 > 100 µM | K562 > 100 µM | UO-31 > 100 µM | XF498 > 100 µM | HOP-92 > 100 µM | UACC-257 > 100 µM | LOX IMVI > 100 µM | SF-268 > 100 µM | MOLT-4 > 100 µM | LXFL 529 > 100 µM | HCC 2998 > 100 µM | OVCAR-3 > 100 µM | SK-MEL-28 > 100 µM | HT-29 > 100 µM | CCRF-CEM > 100 µM | SF-295 > 100 µM | DLD-1 > 100 µM | SNB-78 > 100 µM | OVCAR-4 > 100 µM | SK-OV-3 > 100 µM | OVCAR-8 > 10 µM | SW-620 > 10 µM | TK-10 > 10 µM | HL-60 > 100 µM | EKVX > 10 µM | RXF 393 > 100 µM | SN12C > 100 µM | SK-MEL-5 > 10 µM | DMS-273 > 100 µM | SK-MEL-2 > 100 µM | NCI-H522 7.48 µM | SNB-19 > 100 µM | NCI-H460 > 100 µM | UACC-62 > 100 µM | ACHN > 100 µM

Source: ChEMBL document CHEMBL1201862, “PubChem BioAssay data set” (2004)
